Experiments:
Assay type in all cases: in vivo
Centaurea cyanus = test: Post-emergence field trial, herbicidal effect; conditions: post emergence application GS18, field trial
Method: (§1) The experiments were conducted as post applied field trials with plot sizes of 11.25-15 qm, an application volume of 250-300 liter water per hectare and two to three repetitions. Seeds of different crops and various monocot and dicot weeds were either sown or the monocot and dicot weeds were grown naturally and established under common field conditions. The evaluation 13-46 days after application was assessed visually. Treated plants were compared to untreated plants (0-100% scale). In the tables below, GS (growth stage) corresponds to BBCH-code (see for reference Lancashire, P. D.; H. Bleiholder; P. Langeluddecke; R. Stauss; T van den Boom; E. Weber; A. Witzen-Berger (1991). “A uniform decimal code for growth stages of crops and weeds”: Ann. Appl. Biol. 119 (3): 561-601; or Witzenberger, A.; H. Hack; T van den Boom (1989): “Erläuterungen zum BBCH-Dezimal-Code für die Entwicklungsstadien des Getreides—mit Abbildungen”. Gesunde pflanzen 41: 384-388; or Zadoks, J. C., Chang, T T & Konzak, C. F. (1974): A decimal code for the growth stages of cereals. Weed Research 14, 415421)
(§2) The generated values from applications alone and in combination were used to evaluate the combinatorial effects according to S. R. Colby, Weeds 15, pages 20 to 22 (1967).
(§3) The abbreviations have the following meaning: • a.i.=active ingredient • E=Observed combination effect value • EC=Calculated combination effect value according to Colby (EC=A+B−A×B/100) • Diff:=Difference (%) between observed and expected combination effect value (%) (observed minus expected value)

Galium aparine = test: Post-emergence field trial, herbicidal effect; conditions: post emergence application GS23, field trial
Method: as §1, §2, §3

Papaver rhoeas = test: Post-emergence field trial, herbicidal effect; conditions: Table 8; post emergence application GS18, field trial; 50 g a.i./ha
Method: as §1, §2, §3

Triticum aestivum = conditions: 200 g a.i./ha
Method: as §1, §2, §3

Hordeum vulgare = conditions: Table 2; post emergence application GS29, field trial; 200 g a.i./ha; visual, 0-100% scale vs untreated
Method: as §1, §2, §3

Nc1c([N+](=O)[O-])ccc(Oc2ccccc2)c1Cl [aclonifen, reference compound]
Efficacy [%] against Centaurea cyanus (Centaurea cyanus; Table 9, 450 g a.i./ha): 0%

CCCCCCCC(=O)Oc1c(Br)cc(C#N)cc1Br [bromoxynil AS octanoate, reference compound]
Efficacy [%] against Galium aparine (Galium aparine; Table 7, 175 g a.i./ha): 10%

CSc1nnc(C(C)(C)C)c(=O)n1N [metribuzin, reference compound]
Efficacy [%] against Papaver rhoeas (Papaver rhoeas): 0%

O=C(Nc1ccc(F)cc1F)c1cccnc1Oc1cccc(C(F)(F)F)c1 [diflufenican, reference compound]
Efficacy [%] against Centaurea cyanus (Centaurea cyanus; Table 6, 75 g a.i./ha): 0%

CC1(C)CON(Cc2ccc(Cl)cc2Cl)C1=O [COMPOUND I, 2-(2,4-dichlorophenyl)methyl-4,4-dimethyl-3-isoxazolidone]
Efficacy [%] against Centaurea cyanus (Centaurea cyanus; Table 5, 50 g a.i./ha): 25%
Efficacy [%] against Centaurea cyanus (Centaurea cyanus; Table 6, 50 g a.i./ha): 25%
Efficacy [%] against Centaurea cyanus (Centaurea cyanus; Table 9, 100 g a.i./ha): 75%
Efficacy [%] against Galium aparine (Galium aparine; Table 4, 100 g a.i./ha): 25%
Efficacy [%] against Galium aparine (Galium aparine; Table 7, 100 g a.i./ha): 0%
Efficacy [%] against Papaver rhoeas (Papaver rhoeas): 0%
Efficacy/selectivity [%] against Triticum aestivum (Triticum aestivum; Table 1, post emergence application GS30, field trial, visual, 0-100% scale vs untreated): 30%
Efficacy/selectivty [%] against Triticum aestivum (Triticum aestivum; Table 3, post emergence application GS29, field trial): 18%
Efficacy/selectivity [%] against Hordeum vulgare (Hordeum vulgare): 32%

Nc1c(Cl)c(F)nc(OCC(=O)O)c1Cl [fluroxypyr, reference compound]
Efficacy [%] against Centaurea cyanus (Centaurea cyanus; Table 5, 150 g a.i./ha): 30%
